Results taken from US9381246B2, “Cancer therapy” (TriAct Therapeutics, Inc., priority 2013, dated 2016).
“Also recorded” adds a separate entry of the source.

How the values were obtained:
IGF1R [1] = biological target: T1, IGF1R (Homo sapiens, UniProt P08069); test: ATP binding competition assay
Experimental: Next, competition with ATP was determined directly by employing an assay previously validated to quantify the Km for small molecule kinase inhibitors compete for ATP binding to various kinases (Goldstein et al. 2008).
Target sequence in this assay (P08069 999-1274 limits assumed): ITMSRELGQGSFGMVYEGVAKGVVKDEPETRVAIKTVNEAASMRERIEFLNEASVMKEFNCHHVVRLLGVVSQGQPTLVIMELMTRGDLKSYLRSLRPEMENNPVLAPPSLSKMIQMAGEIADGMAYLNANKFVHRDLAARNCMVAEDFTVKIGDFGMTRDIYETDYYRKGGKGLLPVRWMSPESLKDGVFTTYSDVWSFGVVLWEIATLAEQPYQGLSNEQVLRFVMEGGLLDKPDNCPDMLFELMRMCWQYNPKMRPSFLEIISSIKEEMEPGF

IGF1R [2] = biological target: T1, IGF1R; test: IGF1R kinase inhibition (FIG. 7); format: biochemical; details: data from 3 sources
EGFR [3] = biological target: EGFR (Homo sapiens, UniProt P00533); test: EGFR kinase inhibition / substrate phosphorylation (FIG. 6, 7); format: biochemical
c-met = c-met (Homo sapiens, UniProt P08581); test: c-met kinase inhibition (FIG. 8); format: biochemical; details: data from 3 sources
KDR (VEGFR2) = KDR (VEGFR2) (Homo sapiens, UniProt P35968); test: KDR (VEGFR2) kinase inhibition; format: biochemical; details: data from 3 sources
From the text: The inhibition of these targets appears to be via a mechanism of action that is distinct from approved tyrosine kinase inhibitors (TKIs).

IGF-IR = test: Total protein levels over time-course (FIG. 9); format: cell-based; details: 2, 4, 8 and 24 hours after treatment, compared to control
EGFR [4] = test: Total protein levels over time-course (FIG. 9); format: cell-based; details: 2, 4, 8 and 24 hours after treatment, compared to control
HER2 = test: Total protein levels over time-course (FIG. 9); format: cell-based; details: 2, 4, 8 and 24 hours after treatment, compared to control
Met = test: Total protein levels over time-course (FIG. 9); format: cell-based; details: 2, 4, 8 and 24 hours after treatment, compared to control
H1975 NSCLC cells = test: Soft agar colony formation; format: cell-based; details: H1975, Iressa®-resistant NSCLC cells (T790M), 11 days
Experimental: FIG. 10. […] Colony formation was determined and results reported normalized to control values as illustrated in FIG. 10.
Colony formation was determined and results reported normalized to control values as illustrated in FIG. 10.

[5] = tested on: Tarceva® resistant cell lines (Kras mutants, EGFR mutants, T790M mutation); test: Growth of Tarceva resistant cell lines (FIG. 11); format: cell-based; details: growth compared to untreated cells
From the text: FIG. 11. […] Growth is shown on the y axis compared to untreated cells. A description of the mutations in the cell lines are identified below in Table 1.

[6] = tested on: Additional NSCLC cell lines; test: Growth of additional NSCLC cell lines (FIG. 12); format: cell-based; details: growth compared to untreated cells
From the text: FIG. 12. […] Growth is shown on the y axis compared to untreated cells.

NSCLC xenograft = NSCLC xenograft tumor growth (FIG. 16); format: in vivo; details: 3 weeks post-tumor challenge
From the text: FIG. 16. […] Tumor volume is shown (y axis) at […], 2.5 and 3 weeks post tumor challenge (x axis).

breast xenograft = test: Breast xenograft tumor growth (FIG. 17); format: in vivo
From the text: FIG. 17. […] Tumor volume is shown (y axis) at various time days post tumor challenge (x axis).

pancreatic xenograft = test: Pancreatic xenograft tumor growth (FIG. 18); format: in vivo
From the text: FIG. 18. […] Tumor volume is shown (y axis) at various time days post tumor challenge (x axis).

[7] = tested on: second pancreatic xenograft; test: Second pancreatic xenograft tumor growth (FIG. 19); format: in vivo
From the text: FIG. 19. […] Tumor volume is shown (y axis) at various time days post tumor challenge (x axis).

xenografts of Table 3 = test: Efficacy in the xenografts of Table 3; format: in vivo; details: NCI-H209, AsPC-1, HPAC, SW850, MDA-MB435, Her-2 over expressing breast, LoVo, C4-I, neuroblastoma, NCI-H1264
Beagle dogs [8] = test: Multi-dose oral toxicity, dogs; format: in vivo, dog
Experimental: A dog 28-day multi-dose toxicology assessment was also conducted.

Sprague Dawley rats = test: 28-day multi-dose oral toxicity, rats; format: in vivo, rat
Experimental: A rat 28-day multi-dose toxicology assessment was conducted at 15, 150, or 500 mg/kg/day.

Beagle dogs [9] = test: Multi-dose toxicity (dose escalation), dogs; format: in vivo
[10] = Phase 1b and 2a clinical data; format: in vivo
From the text: It provides a competitive advantage over previously described compounds in that the present inventors have identified a novel proposed mechanism of action (MOA), which has been market validated (EGFR & cMet) and clinically validated (IGFR). […] Dose selection has also been determined.

[11] = tested on: New Zealand white rabbits; details: rabbit, in vivo, po, 14 days
in vivo [12] = details: CR: 1CD BR, rat, po
in vivo [13] = details: New Zealand white, rabbit, po
IGF1R [14] = biological target: T1, IGF1R; test: IGF-1R tyrosine kinase assay with poly Glu4:Tyr1 (PGT) substrate, Lineweaver-Burke analysis; format: biochemical; design: made in house; host or cells: CHO-IGFR cells
Experimental: FIG. 1. […] Tyrosine kinase substrate Glu4: Tyr1 was bound to 96 well plates. […] Phosphorylation of substrate was determined by anti-phosphotyrosine ELISA**.
A Lineweaver-Burke analysis was used to calculate Km and Vmax for this reaction (FIG. 1).
Soluble IGF-1R, partially purified from CHO-IGFR cells were incubated with 10 nM IGF-1 in Kinase Buffer (50 mM, pH 7.4, 150 mM NaCl, 0.1% Triton X-100, 0.1% gelatin, 5 mM MnCl2, 8 mM MgCl2, and 1 mM PMSF) for 1 hr at room temperature (RT). […] Labeled ^32P-ATP (20 μM) was added in the presence of varying concentrations of the tyrosine kinase substrate poly Glu4:Tyr1 (PGT) (0.005 to 4 mg/ml). The reaction was stopped after 30 min at 22° C. by blotting 40 μl of the reaction mixture onto Whatman 3 MM papers. Filter papers were air dried and then subjected to the following washing protocol in 10% TCA with 10 mM Na4P2O7: 15 min at 4° C., 15 min at 20° C., 5 min boiling, 5 min boiling, followed by a short rinse with acetone. The filter papers were then allowed to air dry completely. ^32P incorporation into the substrate was determined by liquid scintillation counting.
Target sequence in this assay (P08069 741-1367 limits assumed): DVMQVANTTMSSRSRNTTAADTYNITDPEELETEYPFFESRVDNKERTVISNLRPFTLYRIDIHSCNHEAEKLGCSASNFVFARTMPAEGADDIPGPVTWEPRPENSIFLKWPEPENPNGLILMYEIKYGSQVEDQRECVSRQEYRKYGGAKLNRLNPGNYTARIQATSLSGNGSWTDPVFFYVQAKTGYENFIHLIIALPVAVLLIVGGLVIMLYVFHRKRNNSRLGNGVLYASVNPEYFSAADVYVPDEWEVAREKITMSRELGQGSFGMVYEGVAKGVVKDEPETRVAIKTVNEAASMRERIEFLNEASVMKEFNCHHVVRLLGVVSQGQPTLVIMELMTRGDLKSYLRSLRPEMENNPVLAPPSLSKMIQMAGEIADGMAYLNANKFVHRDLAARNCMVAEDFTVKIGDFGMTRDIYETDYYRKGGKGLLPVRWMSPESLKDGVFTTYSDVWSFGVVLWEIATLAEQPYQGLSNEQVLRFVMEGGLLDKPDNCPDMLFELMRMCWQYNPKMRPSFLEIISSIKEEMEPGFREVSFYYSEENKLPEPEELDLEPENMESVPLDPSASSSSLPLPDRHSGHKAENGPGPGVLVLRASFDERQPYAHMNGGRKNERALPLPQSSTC
Target sequence in this assay (P08069 31-736 partner limits assumed): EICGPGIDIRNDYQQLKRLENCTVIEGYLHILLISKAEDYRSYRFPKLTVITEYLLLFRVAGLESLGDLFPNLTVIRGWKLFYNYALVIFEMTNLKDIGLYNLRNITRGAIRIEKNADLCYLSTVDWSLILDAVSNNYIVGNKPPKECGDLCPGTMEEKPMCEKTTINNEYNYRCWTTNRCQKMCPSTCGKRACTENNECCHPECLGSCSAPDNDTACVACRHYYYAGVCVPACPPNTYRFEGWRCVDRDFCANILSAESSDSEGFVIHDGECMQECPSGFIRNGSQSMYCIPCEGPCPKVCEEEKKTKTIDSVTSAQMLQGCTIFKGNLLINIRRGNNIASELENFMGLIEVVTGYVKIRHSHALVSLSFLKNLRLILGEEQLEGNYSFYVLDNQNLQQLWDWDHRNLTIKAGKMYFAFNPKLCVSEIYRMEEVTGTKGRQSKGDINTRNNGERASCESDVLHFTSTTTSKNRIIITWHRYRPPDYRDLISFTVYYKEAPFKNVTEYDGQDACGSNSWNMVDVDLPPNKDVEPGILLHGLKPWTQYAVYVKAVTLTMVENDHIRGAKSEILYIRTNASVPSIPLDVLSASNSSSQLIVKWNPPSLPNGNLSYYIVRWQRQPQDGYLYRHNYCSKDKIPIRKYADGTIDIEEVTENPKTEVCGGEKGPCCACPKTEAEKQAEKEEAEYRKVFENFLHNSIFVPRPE
Target sequence in this assay (P05019 49-118 partner limits assumed): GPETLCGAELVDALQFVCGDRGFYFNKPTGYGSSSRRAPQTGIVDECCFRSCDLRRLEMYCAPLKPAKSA

[15] = dog 28-day multi-dose toxicology assessment

Chain of EGFR (Homo sapiens, UniProt P00533) (P00533 25-1210): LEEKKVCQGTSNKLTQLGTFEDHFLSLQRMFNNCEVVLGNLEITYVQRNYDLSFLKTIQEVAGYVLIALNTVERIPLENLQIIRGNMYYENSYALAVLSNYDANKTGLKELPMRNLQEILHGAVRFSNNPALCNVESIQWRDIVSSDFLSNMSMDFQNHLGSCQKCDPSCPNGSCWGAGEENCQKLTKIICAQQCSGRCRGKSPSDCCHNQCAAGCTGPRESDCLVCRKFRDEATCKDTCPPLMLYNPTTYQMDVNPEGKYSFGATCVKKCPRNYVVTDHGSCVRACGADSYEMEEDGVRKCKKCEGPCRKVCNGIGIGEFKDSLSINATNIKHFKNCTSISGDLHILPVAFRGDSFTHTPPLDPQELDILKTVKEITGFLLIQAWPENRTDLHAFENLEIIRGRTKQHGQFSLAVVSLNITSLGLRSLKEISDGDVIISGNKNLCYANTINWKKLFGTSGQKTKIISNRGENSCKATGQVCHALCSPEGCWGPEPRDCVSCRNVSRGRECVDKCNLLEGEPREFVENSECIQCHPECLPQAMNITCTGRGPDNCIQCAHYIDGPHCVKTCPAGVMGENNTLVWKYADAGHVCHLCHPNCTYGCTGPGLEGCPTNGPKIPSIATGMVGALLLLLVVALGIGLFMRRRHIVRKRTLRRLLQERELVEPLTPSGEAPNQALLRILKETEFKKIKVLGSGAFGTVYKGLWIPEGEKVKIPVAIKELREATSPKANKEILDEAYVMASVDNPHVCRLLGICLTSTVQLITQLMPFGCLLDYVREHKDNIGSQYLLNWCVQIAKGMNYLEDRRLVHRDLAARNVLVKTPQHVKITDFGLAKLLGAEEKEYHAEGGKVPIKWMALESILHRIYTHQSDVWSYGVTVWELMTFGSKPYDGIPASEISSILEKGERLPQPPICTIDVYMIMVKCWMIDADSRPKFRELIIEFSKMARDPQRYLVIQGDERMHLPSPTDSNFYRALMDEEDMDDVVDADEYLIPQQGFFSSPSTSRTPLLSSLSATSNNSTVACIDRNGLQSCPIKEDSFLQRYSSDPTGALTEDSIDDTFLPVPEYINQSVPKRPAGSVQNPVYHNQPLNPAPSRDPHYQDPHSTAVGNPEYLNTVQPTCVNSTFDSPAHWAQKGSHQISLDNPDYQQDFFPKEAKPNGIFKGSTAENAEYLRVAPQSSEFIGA
Chain of KDR (VEGFR2) (P35968 20-1356): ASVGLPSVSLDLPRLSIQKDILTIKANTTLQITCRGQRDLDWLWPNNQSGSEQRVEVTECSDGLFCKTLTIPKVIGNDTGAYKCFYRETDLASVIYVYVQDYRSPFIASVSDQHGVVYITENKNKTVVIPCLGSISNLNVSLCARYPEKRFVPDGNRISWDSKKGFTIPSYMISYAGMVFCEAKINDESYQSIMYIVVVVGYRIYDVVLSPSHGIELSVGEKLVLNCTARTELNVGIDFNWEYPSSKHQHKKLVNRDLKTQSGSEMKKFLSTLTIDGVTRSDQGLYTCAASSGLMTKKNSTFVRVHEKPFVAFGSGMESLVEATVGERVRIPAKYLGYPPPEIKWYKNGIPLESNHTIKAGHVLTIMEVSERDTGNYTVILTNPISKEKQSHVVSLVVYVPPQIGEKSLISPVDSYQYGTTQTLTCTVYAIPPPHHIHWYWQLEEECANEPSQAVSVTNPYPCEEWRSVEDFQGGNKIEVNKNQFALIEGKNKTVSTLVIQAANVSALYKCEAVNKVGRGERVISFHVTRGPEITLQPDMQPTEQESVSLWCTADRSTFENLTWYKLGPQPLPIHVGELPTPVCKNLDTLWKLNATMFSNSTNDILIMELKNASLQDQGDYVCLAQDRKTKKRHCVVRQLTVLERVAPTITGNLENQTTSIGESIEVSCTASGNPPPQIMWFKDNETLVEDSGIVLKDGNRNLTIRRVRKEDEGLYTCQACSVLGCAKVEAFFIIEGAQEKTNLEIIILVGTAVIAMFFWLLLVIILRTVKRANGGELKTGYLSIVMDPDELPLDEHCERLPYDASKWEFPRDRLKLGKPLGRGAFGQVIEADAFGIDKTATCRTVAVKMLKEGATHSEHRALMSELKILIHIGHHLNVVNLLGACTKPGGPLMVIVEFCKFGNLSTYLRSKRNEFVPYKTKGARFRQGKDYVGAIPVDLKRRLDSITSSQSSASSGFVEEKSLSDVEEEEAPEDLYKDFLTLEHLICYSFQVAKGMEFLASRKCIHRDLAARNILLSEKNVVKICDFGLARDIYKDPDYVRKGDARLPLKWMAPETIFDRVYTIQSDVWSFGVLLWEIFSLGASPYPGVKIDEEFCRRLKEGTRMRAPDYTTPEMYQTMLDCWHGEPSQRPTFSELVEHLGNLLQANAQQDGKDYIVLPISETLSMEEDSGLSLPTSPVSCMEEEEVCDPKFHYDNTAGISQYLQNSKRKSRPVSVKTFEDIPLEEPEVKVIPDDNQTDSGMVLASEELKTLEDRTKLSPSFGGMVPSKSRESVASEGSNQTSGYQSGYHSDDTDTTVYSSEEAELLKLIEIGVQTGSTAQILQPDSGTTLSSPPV

SMILES: CC(Cc1ccc(O)c(O)c1)C(C)Cc1ccc(O)c(O)c1 (centres unmarked) [NDGA, nordihydroguaiaretic acid]
- Amount of ATP bound to IGF-1R (IGF1R [1]; 30 μM NDGA): unchanged
- Interference with binding of a labeled ATP analog to recombinant IGF-1R (IGF1R [1]; any concentration of NDGA up to 100 μM): did not interfere; also recorded: does not interfere
- Inhibition of IGF1R (IGF1R [2]): inhibition
- Inhibition of EGFR / substrate phosphorylation (EGFR [3]): inhibits substrate phosphorylation; also recorded: inhibition
- Inhibition of cMet (c-met): inhibition
- Inhibition of KDR (VEGFR2) (KDR (VEGFR2)): inhibition
- Total protein level of IGF-IR (IGF-IR): reduction in total protein levels
- Total protein level of EGFR (EGFR [4]): reduction in total protein levels
- Total protein level of HER2 (HER2): reduction in total protein levels
- Total protein level of Met (Met): reduction in total protein levels
- Activity on colony formation in soft agar (H1975 NSCLC cells): active
- Sensitivity of growth to NDGA [5]: sensitive
- Sensitivity of growth to NDGA [6]: sensitive
- Tumor growth (tumor volume) compared to control (NSCLC xenograft): inhibit tumor growth
- Tumor growth (tumor volume) compared to control (breast xenograft): inhibited growth
- Tumor growth (tumor volume) compared to control (pancreatic xenograft): inhibited growth
- Tumor growth (tumor volume) compared to control [7]: inhibited growth
- Efficacy in xenografts (xenografts of Table 3): efficacy was shown
- Necropsy findings (Beagle dogs [8]; [15]): intestinal mucosal reddening
- No observable effect level (NOEL) (Beagle dogs [8]; [15]): 60 mg/kg/day
- Tolerability of all of the other doses (Beagle dogs [8]; dog, in vivo): well-tolerated in this
- Findings at 150 and 500 mg/kg/day (Sprague Dawley rats; 150 and 500 mg/kg/day, 28 days, listed as TT-100): Stomach and duodenal hypertrophy/alterations; also recorded: adverse events
- No-effect dose level (Sprague Dawley rats; oral (gavage), once daily for 28 days): 15 mg/kg/day
- Tolerability in the repeated dose phase (Beagle dogs [9]; dog, in vivo, po, 300 mg/kg/day): fairly well tolerated,
- Clinical findings in the escalation phase (Beagle dogs [9]; dogs, single oral (capsule) doses of 600 and 1200 mg/kg): Significant emesis,
- Safety and tolerability [10]: safe and well tolerated
- No-effect level [11]: dose of 1000 mg/kg
- LD50 at 14 days (in vivo [12]): > 5000 mg/kg
- LD50 at 14 days (in vivo [13]; female): 1650 mg/kg
- LD50 at 14 days (in vivo [13]; male): 2500 mg/kg
- Mechanism of action of IGF-1R inhibition (IGF1R [14]; varying PGT substrate, 20 μg/ml NDGA): substrate competition
- Vmax (IGF1R [14]; with NDGA (+TT100), 10 nM IGF-1, 20 μM ATP): 2.0 pmol/min
